The record followed here is patent publication US8952177B2 (Janssen Pharmaceutica NV, priority 2013, dated 2015).

Where a name gives a salt, the structure may show the parent alone.

The subject of one assay is leukotriene pathway in human whole blood (LTB4). Nature of the assay: Human whole blood assay (LTB4 after calcium ionophore A23187 stimulation). Format: cell-based. Conditions: Homo sapiens, human whole blood diluted 1:1 in RPMI, 15 min pre-incubation, A23187 7 μg/mL for 30 min at 37° Celsius. The method, then:
The ability of the compounds of the present invention to treat a FLAP-mediated disease and/or disorder, or associated symptoms or complications thereof, was determined using the following procedures. Binding assay data represent the average value obtained from two different assay plates, with samples run in duplicate on each plate. Human whole blood assay data represent a single replicate on an assay plate using whole blood from at least one healthy donor.
An in vitro cellular assay was performed using human whole blood collected in heparin-containing tubes, which was used to test the ability of compounds to modulate the leukotriene pathway in human whole blood. The blood was diluted 1:1 in RPMI medium, pre-incubated for 15 min at 37° Celsius with test compounds at various concentrations, and then stimulated with calcium ionophore, A23187 (7 μg/mL), for 30 min at 37° Celsius. The samples were then centrifuged and plasma was removed. The plasma was diluted in assay buffer and LTB4 levels were measured using a commercial kit (Enzo Life Sciences). The concentration of each compound that was required for half-maximal inhibition (modulation) of […] (IC50) was calculated by a 4-parameter equation using the program GraphPad Prism (GraphPad software). For analysis, data are imported into 3DX and aggregated as the average of duplicates of the calculated ratios in order to calculate Ki and IC50 values. Numbers in parentheses are the number of runs for the assay.
For orientation: IC50 means the midpoint of a concentration-inhibition curve. In the case of `Cc1ccc(COc2ccc3nc(C4CCCC[C@H]4C(=O)O)n(Cc4ccc(Br)c(F)c4)c3c2)nc1` (mixture of isomers) [Example 4, racemic cis-2-{1-(4-Bromo-3-fluorobenzyl)-6-[(5-methylpyridin-2-yl)methoxy]-1H-benzimidazol-2-yl}cyclohexanecarboxylic acid as the TFA salt], the IC50 was 1.02 µM.

With `Cc1ccc(COc2ccc3nc(C4CCCC[C@H]4C(=O)O)n(Cc4ccc(Br)cc4F)c3c2)nc1` (mixture of isomers) [Example 10, racemic cis-2-{1-(4-Bromo-2-fluorobenzyl)-6-[(5-methylpyridin-2-yl)methoxy]-1H-benzimidazol-2-yl}cyclohexanecarboxylic acid], the IC50 came to 0.38 µM.

`Cc1ccc(COc2ccc3nc(C4CCCC[C@@H]4C(=O)O)n(Cc4ccc(Br)cc4F)c3c2)nc1` (mixture of isomers) [Example 13, racemic trans-2-{1-(4-Bromo-2-fluorobenzyl)-6-[(5-methylpyridin-2-yl)methoxy]-1H-benzimidazol-2-yl}cyclohexanecarboxylic acid]: the IC50 was 1.19 µM.

`Cc1ccc(COc2ccc3nc([C@H]4CCCC[C@H]4C(=O)O)n(Cc4ccc(OC(F)(F)F)c(F)c4)c3c2)nc1` (racemic) [Example 20, racemic cis-2-{1-[3-Fluoro-4-(trifluoromethoxy)benzyl]-6-[(5-methylpyridin-2-yl)methoxy]-1H-benzimidazol-2-yl}cyclohexanecarboxylic acid]: the IC50 worked out at 0.75 µM.

As for `Cc1ccc(COc2ccc3nc([C@H]4CCCC[C@@H]4C(=O)O)n(Cc4ccc(OC(F)(F)F)cc4F)c3c2)nc1` (racemic) [Example 21, racemic trans-2-{1-[2-Fluoro-4-(trifluoromethoxy)benzyl]-6-[(5-methylpyridin-2-yl)methoxy]-1H-benzimidazol-2-yl}cyclohexanecarboxylic acid], the IC50 was 0.74 µM.

`Cc1ccc(COc2ccc3nc([C@@H]4[C@H](C(=O)O)C4(C)C)n(Cc4ccc(OC(F)(F)F)cc4)c3c2)nc1` (racemic) [Example 25]: the IC50 amounted to 3.12 µM.

For the molecule `Cc1ccc(COc2ccc3nc([C@H]4CCCC[C@H]4C(=O)O)n(Cc4ccc(OC(F)(F)F)cc4F)c3c2)nc1` (racemic) [Example 26, racemic cis-2-{1-[2-Fluoro-4-(trifluoromethoxy)benzyl]-6-[(5-methylpyridin-2-yl)methoxy]-1H-benzimidazol-2-yl}cyclohexanecarboxylic acid], the IC50 was found to be 0.56 µM.

For `Cc1ccc(COc2ccc3nc([C@@H]4CCCC[C@H]4C(=O)O)n(Cc4ccc(OC(F)(F)F)cc4)c3c2)nc1` (racemic) [Example 31, racemic trans-2-{6-[(5-Methylpyridin-2-yl)methoxy]-1-[4-(trifluoromethoxy)benzyl]-1H-benzimidazol-2-yl}cyclohexanecarboxylic acid], the IC50 came out at 1.97 µM.

Take `Cc1ccc(COc2ccc3nc([C@H]4CCCC[C@H]4C(=O)O)n(Cc4ccc(OC(F)(F)F)c(Cl)c4)c3c2)nc1` (racemic) [Example 32, racemic cis-2-{1-[3-Chloro-4-(trifluoromethoxy)benzyl]-6-[(5-methylpyridin-2-yl)methoxy]-1H-benzimidazol-2-yl}cyclohexanecarboxylic acid]: the IC50 was found to be 0.21 µM.

On to `Cn1ccc(COc2ccc3nc([C@H]4CCCC[C@H]4C(=O)O)n(Cc4ccc(OC(F)(F)F)cc4)c3c2)n1` (racemic) [Example 44, racemic cis-2-{6-[(1-Methyl-1H-pyrazol-3-yl)methoxy]-1-[4-(trifluoromethoxy)benzyl]-1H-benzimidazol-2-yl}cyclohexanecarboxylic acid], for which the IC50 worked out at 1.01 µM.

For `Cn1ccc(COc2ccc3nc([C@H]4CCCC[C@@H]4C(=O)O)n(Cc4ccc(OC(F)(F)F)cc4)c3c2)n1` (racemic) [Example 54, racemic trans-2-{6-[(1-Methyl-1H-pyrazol-3-yl)methoxy]-1-[4-(trifluoromethoxy)benzyl]-1H-benzimidazol-2-yl}cyclohexanecarboxylic acid], the IC50 is 2.91 µM.

With `Cn1ccc(COc2ccc3nc([C@@H]4CCCC[C@@H]4C(=O)O)n(Cc4ccc(OC(F)(F)F)c(F)c4)c3c2)n1` (racemic) [Example 55, racemic cis-2-{1-[3-Fluoro-4-(trifluoromethoxy)benzyl]-6-[(1-methyl-1H-pyrazol-3-yl)methoxy]-1H-benzimidazol-2-yl}cyclohexanecarboxylic acid], the IC50 was found to be 3.33 µM.

Turning to `Cc1ccc(COc2cc(F)c3nc([C@@H]4CCCC[C@@H]4C(=O)O)n(Cc4ccc(Br)cc4)c3c2)nc1` (racemic) [Example 59, racemic cis-2-{1-(4-Bromobenzyl)-4-fluoro-6-[(5-methylpyridin-2-yl)methoxy]-1H-benzimidazol-2-yl}cyclohexanecarboxylic acid], the IC50 amounted to 0.19 µM.

Take `Cc1ccc(COc2cc(F)c3nc([C@H]4CCCC[C@@H]4C(=O)O)n(Cc4ccc(Br)cc4)c3c2)nc1` (racemic) [Example 62, racemic trans-2-{1-(4-Bromobenzyl)-4-fluoro-6-[(5-methylpyridin-2-yl)methoxy]-1H-benzimidazol-2-yl}cyclohexanecarboxylic acid]: the IC50 is 0.97 µM.

For `Cc1ccc(COc2cc(F)c3nc(C4[C@H](C(=O)O)C4(C)C)n(Cc4ccc(Br)cc4)c3c2)nc1` (mixture of isomers) [Example 63, racemic cis-3-{1-(4-Bromobenzyl)-4-fluoro-6-[(5-methylpyridin-2-yl)methoxy]-1H-benzimidazol-2-yl}-2,2-dimethylcyclopropanecarboxylic acid], the IC50 came to 1.08 µM.

`Cc1ccc(COc2cc(F)c3nc(C4CCCC[C@H]4C(=O)O)n(Cc4ccc(OC(F)(F)F)cc4)c3c2)nc1` (mixture of isomers) [Example 66, racemic cis-2-{4-Fluoro-6-[(5-methylpyridin-2-yl)methoxy]-1-[4-(trifluoromethoxy)benzyl]-1H-benzimidazol-2-yl}cyclohexanecarboxylic acid as the TFA salt]: the IC50 was 0.59 µM.

Staying with this assay, now noted: human whole blood diluted 1:1 in RPMI, 15 min pre-incubation, A23187 7 μg/mL for 30 min at 37° Celsius.
For the molecule `Cc1ccc(COc2ccc3nc(C4CCCC[C@@H]4C(=O)O)n(Cc4ccc(Br)cc4)c3c2)nc1` (mixture of isomers) [Example 1, racemic cis-2-{1-(4-Bromobenzyl)-6-[(5-methylpyridin-2-yl)methoxy]-1H-benzimidazol-2-yl}cyclohexanecarboxylic acid], the IC50 stood at 0.4 µM.

The assay is the same for the next values; noted with them: human whole blood diluted 1:1 in RPMI, 15 min pre-incubation, A23187 7 μg/mL for 30 min at 37° Celsius; TFA salt.
As to `Cc1ccc(COc2ccc3nc(C4CCCC[C@@H]4C(=O)O)n(Cc4ccc(Br)cc4)c3c2)nc1` (mixture of isomers) [Example 5, racemic trans-2-{1-(4-Bromobenzyl)-6-[(5-methylpyridin-2-yl)methoxy]-1H-benzimidazol-2-yl}cyclohexanecarboxylic acid as the TFA salt], the IC50 amounted to 1.39 µM.

Consider `Cn1ccc(COc2ccc3nc(C4CCCC[C@H]4C(=O)O)n(Cc4ccc(Br)cc4)c3c2)n1` (mixture of isomers) [Example 40, racemic cis-2-{1-(4-Bromobenzyl)-6-[(1-methyl-1H-pyrazol-3-yl)methoxy]-1H-benzimidazol-2-yl}cyclohexanecarboxylic acid as the TFA salt], for which the IC50 came out at 0.47 µM.

Regarding `Cn1ccc(COc2ccc3nc(C4CCCC[C@H]4C(=O)O)n(Cc4ccc(Br)cc4)c3c2)n1` (mixture of isomers) [Example 41, racemic trans-2-{1-(4-Bromobenzyl)-6-[(1-methyl-1H-pyrazol-3-yl)methoxy]-1H-benzimidazol-2-yl}cyclohexanecarboxylic acid as the TFA salt], the IC50 turned out to be 6.76 µM.
